From patent publication US9107914B2, “Beta-carbolines for use in the treatment of hearing loss and vertigo” (AudioCure Pharma GmbH, priority 2009, dated 2015)

B1: GDNF: Glial cell line derived neurotrophic factor (protein, UniProt P39905 78-211, looked up)
Glial cell line-derived …: SPDKQMAVLPRRERNRQAAAANPENSRGKGRRGQRGKNRGCVLTAIHLNVTDLGLGYETKEELIFRYCSGSCDAAETTYDKILKNLSRNRRLVSDKVGQACCRPIAFDDDLSFLDDNLVYHILRKHSAKRCGCI
B2: BDNF: brain-derived neurotrophic factor (protein, UniProt P23560 19-247, looked up)
Neurotrophic factor BDNF …: APMKEANIRGQGGLAYPGVRTHGTLESVNGPKAGSRGLTSLADTFEHVIEELLDEDQKVRPNEENNKDADLYTSRVMLSSQVPLEPPLLFLLEEYKNYLDAANMSMRVRRHSDPARRGELSVCDSISEWVTAADKKTAVDMSGGTVTVLEKVPVSKGQLKQYFYETKCNPMGYTKEGCRGIDKRHWNSQCRTTQSYVRALTMDSKKRIGWRFIRIDTSCVCTLTIKRGR

Legend:
[1] = tested on: human SH-SY5Y neuroblastoma cells; experiment: Differentiation model / neurite length in human neuroblastoma cells; type: cell-based; details: 14 days; for differentiation / neurite length in comparison to 9-methyl-β-carboline: SH-SY5Y cells; as to differentiation / neurite length in comparison to 9-methyl-β-carboline: key: +: marginally better than 9-methyl-β-carboline; ±: equal to 9-methyl-β-carboline; −: marginally worse than 9-methyl-β-carboline
Text: Human neuroblastoma cells were utilised for this model. These are permanent cells, which are present as an indifferent type in culture. They can be activated to differentiate, i.e. transformation into neuronal cells, by addition of specific substances such as retinoic acid, […] (BDNF) or activator of the enzyme, protein kinase C to the culture medium. We used this cell system to analyse whether beta-carbolines can transform the indifferent cells into the neuronal type. Criteria were: less proliferation (less cells per field of view); smaller cell bodies (transformation from the indifferent type to the neuronal type); cytodendrites (neuritis), which provide connections to neighbouring cells or clusters of neighbouring cells.
Human SH-SY5Y neuroblastoma cells were incubated in culture for 14 days with solvent (Ko) or test substance. A shift of the graph to the right side for a test substance, pointed to an increase of neurite length, when compared to the graph for the control substance. Statistical differences between the treated groups were calculated with the Tukey's Multiple Comparison-Test.
Shown are the cumulative frequency distributions of neurite lengths, determined in at least 20 randomly selected visual fields (each 640.000 μm^2) in three independent experiments. A steep rise pointed to a predominance of short neuritis, wherein for example in control cells, a less steep rise signified a greater number of longer neurites. The horizontal maximum indicated the maximal neurite length of the respective treatment group. […] The effects are dose- and substance-dependent: 1-methyl-β-carboline <6-methoxy-9-methyl-β-carboline <9-methyl-β-carboline <9-fluorethyl-β-carboline).
The effects of the other inventive β-carbolines (compounds A-L and VI-XX) on neurite length were determined, as described above, in human SH-SY5Y neuroblastoma cells after 14 days.

[2] = tested on: BDNF, GDNF, NGF and NPY in human SH-SY5Y neuroblastoma cells; experiment: Gene expression of growth factors by reverse transcriptase-PCR (Table 2 summary); type: cell-based; details: after 2 and 14 days; also: key: +: marginally better than 9-methyl-β-carboline; ±: equal to 9-methyl-β-carboline; −: marginally worse than 9-methyl-β-carboline
Procedure: Next, it was investigated, whether the substances could induce the formation of nerve growth factors in human SH-SY5Y neuroblastoma cell. After 2 and 14 days the cells were harvested and the expression of the target gene and the house keeping gene was determined via reverse transcriptase-PCR.
The effects of the other inventive β-carbolines (compounds A-L and VI-XX) on the gene expression of BDNF, GDNF, NGF and NPY were determined, as described above, in human SH-SY5Y neuroblastoma cells after 2 and 14 days.

[3] = tested on: inner ear of guinea pigs; experiment: Prophylaxis of hearing damages in an animal model, gentamicin and etacrynic acid (Example 30); type: in vivo; details: infusion to the round window recess, gentamicin and etacrynic acid i.v.
Procedure: A solution containing β-carboline was infused continuously into the recess in front of the membrane of the round window of guinea pigs by a osmotic mini-pump for three days. The following β-carbolines were tested individually in this experiment: 9-methyl-β-carboline, compounds XI, XII, XVIII, XIX as well as C to L.
Then, a standard dose of gentamicin and etacrynic acid was injected intravenously into guinea pigs. Gentamicin and etacrynic acid damage the inner ear. Typically, they are used as toxins to induce deafness in such studies. The infusion was continued for further two days. Then, the electrophysiological activity of the nerve cells of the brain stem, which transmit the impulses of the inner ear, was deduced after acoustic irradiation of the ear with […]. The non-β-carboline-treated ear served as intraindividual control (Prieskorn D M, Miller J M. Technical report: chronic and acute intracochlear infusion in rodents. Hear Res, 2000; 140(1-2): 212-215). Moreover, animals were infused with 9-Me-BC only but not with gentamicin as a further control.
The measured electrophysiological activity of the nerve cells of the acoustic nerve (hearing threshold) served as a measure of the degree of therapeutic effect of the used β-carbolines on the inner ear. As can be learned from Table 3, the used β-carbolines show the increase in electrophysiological activity of the nerve cells of the acoustic nerve. It can be concluded from this that β-carbolines are useful for the treatment of hearing damages, vertigo, and vestibular disorders.

[4] = tested on: cells of the spiral ganglion of the inner ear; details: 48 hours of culture; cited from earlier work

| Molecule | differentiation / neurite length in comparison to 9-methyl-β-carboline [1] | gene expression of BDNF, GDNF, NGF and NPY in comparison to 9-methyl-β-carboline [2] | effect on the inner ear (electrophysiological activity, hearing threshold) in comparison to 9-methyl-β-carboline [3] | neurite length ([1]; 110 μM, vs control group, P<0.001) | survival of cells of the spiral ganglion [4] |
| --- | --- | --- | --- | --- | --- |
| CN(C)CCn1c2ccccc2c2ccncc21 [compound L] | + | ± | + |  |  |
| c1ccc(Cn2c3ccccc3c3ccncc32)cc1 [compound I] | − | − | − |  |  |
| CC(C)Cn1c2ccccc2c2ccncc21 [compound E] | + | ± | − |  |  |
| COc1ccc2c(c1)c1ccncc1n2C1CC1 [compound (XI)] | + | ± | ± |  |  |
| Cc1ccc2c(c1)c1ccnc(C(C)C)c1n2C [compound (XVI)] | − | − | − |  |  |
| CCCCCCCCCCCCCCn1c2ccccc2c2ccncc21 [compound C] | ± | ± | + |  |  |
| CC(C)C(C)Cn1c2ccccc2c2ccncc21 (stereo not drawn) [compound K] | ± | − | ± |  |  |
| COCCn1c2ccccc2c2ccncc21 [compound G] | ± | ± | + |  |  |
| COC(=O)CCn1c2ccccc2c2ccncc21 [compound J] | ± | − | ± |  |  |
| COc1ccc2c(c1)c1ccncc1n2C(C)C [compound (VII)] | − | ± | − |  |  |
| C=CCn1c2ccccc2c2ccncc21 [compound (XX)] | − | ± | ± |  |  |
| C#CCn1c2ccccc2c2ccncc21 [compound H] | + | ± | + |  |  |
| CN(C)c1ccc2c(c1)c1ccncc1n2C [compound (XIII)] | ± | ± | ± |  |  |
| Cc1nccc2c1[nH]c1ccccc12 [harman, 1-methyl-β-carboline, reference compound] | − | − | − | increase in neurite length |  |
| CCn1c2ccccc2c2ccncc21 [compound F] | ± | ± | ± |  |  |
| CCCn1c2ccccc2c2ccncc21 [compound A] | − | − | − |  |  |
| C/C=C/C(C)=C\n1c2ccccc2c2ccnc(Cl)c21 [compound (IX)] | − | − | − |  |  |
| Cn1c2ccc(OC(F)(F)F)cc2c2ccncc21 [compound (XII)] | + | + | + |  |  |
| C=CCn1c2ccccc2c2ccncc21 [compound D] | + | + | − |  |  |
| Cc1ccc2c(c1)c1ccncc1n2C [compound (XVII)] | ± | ± | − |  |  |
| COc1nccc2c3cc(Cl)ccc3n(C)c12 [compound (XIV)] | − | − | − |  |  |
| CCCCCCn1c2ccccc2c2ccncc21 [compound B] | − | − | − |  |  |
| B1 |  |  |  |  | neuroprotective properties |
| B2 |  |  |  |  | neuroprotective properties |
